The text below walks through data of patent publication US20240109873A1, “ANTAGONISTS OF THE MUSCARINIC ACETYLCHOLINE RECEPTOR M4” (Vanderbilt University, priority 2020, published 2024).

Usually IC50 stands for the concentration at which inhibition is half-maximal.

The assay addresses T1, human mAChR M1 (Homo sapiens, UniProt P11229).
T1 construct: host or cells: CHO-K1 (ATCC), stably transfected
T1 sequence (P11229 1-460): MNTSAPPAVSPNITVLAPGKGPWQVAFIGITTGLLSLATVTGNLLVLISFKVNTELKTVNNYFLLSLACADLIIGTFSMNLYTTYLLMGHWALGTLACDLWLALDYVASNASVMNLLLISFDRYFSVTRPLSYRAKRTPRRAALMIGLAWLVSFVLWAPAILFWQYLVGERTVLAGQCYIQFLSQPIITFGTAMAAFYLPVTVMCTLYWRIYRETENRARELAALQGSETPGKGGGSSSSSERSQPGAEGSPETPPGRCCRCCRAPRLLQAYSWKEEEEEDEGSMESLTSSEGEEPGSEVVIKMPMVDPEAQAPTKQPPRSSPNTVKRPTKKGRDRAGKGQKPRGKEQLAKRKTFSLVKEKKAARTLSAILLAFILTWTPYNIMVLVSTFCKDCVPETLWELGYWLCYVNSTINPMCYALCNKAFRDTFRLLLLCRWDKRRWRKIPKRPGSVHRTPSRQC
In words: mAChR M1 cell-based functional assay (calcium flux, antagonism of EC80 acetylcholine response, hM1 CHO-K1 cells). Conditions: for Human M1 Emin: % ACh maximum at 30 μM; for IC50: decrease of the response elicited by an EC80 concentration of acetylcholine, CHO-K1 cells. Here is the method: hM1 cDNA was purchased from Missouri S&T cDNA Resource and used to stably transfect CHO-K1 cells purchased from the American Type Culture Collection using Lipofectamine2000. hM1 cells were grown in Ham's F-12 medium containing 10% heat-inactivated fetal bovine serum (FBS), 20 mM HEPES, and 50 μg/mL G418 sulfate.
For high throughput measurement of agonist-evoked increases in intracellular calcium, CHO-K1 cells stably expressing muscarinic receptors were plated in growth medium lacking G418 and hygromycin at 15,000 cells/20 μL/well in Greiner 384-well black-walled, tissue culture (TC)-treated, clear-bottom plates (VWR). Cells were incubated overnight at 37° C. and 5% CO2. The next day, cells were washed using an ELX 405 (BioTek) with four washes (80 μL) of assay buffer then aspirated to 20 μL. Next, 20 μL of 16 μM Fluo-4/acetoxymethyl ester (Invitrogen, Carlsbad, CA) prepared as a 2.3 mM stock in DMSO and mixed in a 1:1 ratio with 10% (w/v) Pluronic F-127 and diluted in assay buffer was added to the wells and the cell plates were incubated for 50 min at 37° C. and 5% CO2. Dye was removed by washing with the ELX 405 (four 80 μL washes of assay buffer) then aspirated to 20 μL. Compound master plates were formatted in an 11-point CRC format (1:3 dilutions) in 100% DMSO with a starting concentration of 10 mM using the BRAVO liquid handler (Agilent). Test compound CRCs were then transferred to daughter plates (240 nL) using the Echo acoustic plate reformatter (Labcyte, Sunnyvale, CA) and then diluted into assay buffer (40 μL) to a 2× stock using a Thermo Fisher Combi (Thermo Fisher Scientific, Waltham, MA).
Calcium flux was measured using the Functional Drug Screening System (FDSS) 6000 (Hamamatsu Corporation, Tokyo, Japan) as an increase in the fluorescent static ratio. Compounds were applied to cells (20 μL, 2×) using the automated system of the FDSS 6000 at 4 s into the 300 s protocol and the data were collected at 1 Hz. At 144 s into the 300 s protocol, 10 μL of an EC20 concentration of the muscarinic receptor agonist acetylcholine was added (5×), followed by the addition of 12 μL an EC80 concentration of acetylcholine at the 230 s time point (5×). Agonist activity was analyzed as a concentration-dependent increase in calcium mobilization upon compound addition. Emax values for agonist activity are expressed relative to the maximum for acetylcholine. Positive allosteric modulator activity was analyzed as a concentration-dependent increase in the EC20 acetylcholine response. Antagonist activity was analyzed as a concentration-dependent decrease in the EC80 acetylcholine response; for the purposes of the tables herein, an IC50 (inhibitory concentration 50) was calculated as a concentration-dependent decrease of the response elicited by an EC80 concentration of acetylcholine. […]
The above-described assay was also operated in a second mode where an appropriate fixed concentration of the present compounds were added to the cells after establishment of a fluorescence baseline for about 3 seconds, and the response in cells was measured. 140 s later the appropriate concentration of agonist was added and readings taken for an additional 106 s. Data were reduced as described above and the EC50 values for the agonist in the presence of test compound were determined by nonlinear curve fitting. […]
(In general: Calcium flux is commonly read through the fluorescence of an indicator in the cells.)

Turning to `[2H]C([2H])([C@H]1CCOC(C)(C)C1)N1C[C@H]2C[C@H](Nc3ccc(-c4cccnc4C(F)(F)F)nn3)C[C@H]2C1` (single isomer, unassigned) [Compound 61], the “Human M1 Emin” value came to 20% and the IC50 is above 10000 nM. Further, the “human mAChR M1 antagonist activity, comparison in words” value (compound 61 versus compound 62, from Table 3) was “less human mAChR M1 antagonist activity than compound 62”.
As for `[2H]C([2H])([C@@H]1CCOC(C)(C)C1)N1C[C@H]2C[C@H](Nc3ccc(-c4cccnc4C(F)(F)F)nn3)C[C@H]2C1` [Compound 62, (3aR,5s,6aS)-2-(((R)-2,2-dimethyltetrahydro-2H-pyran-4-yl)methyl-d2)-N-(6-(2-(trifluoromethyl)pyridin-3-yl)pyridazin-3-yl)octahydrocyclopenta[c]pyrrol-5-amine], the “Human M1 Emin” value worked out at 6% and the IC50 came to 610 nM.
